Our source for the IC50 values is patent US11673901B2, “Polycyclic compounds as allosteric SHP2 inhibitors” (Revolution Medicines, Inc., priority 2017, dated 2023).

The assay concerns the target SHP2 (Homo sapiens (Human), UniProt Q06124). Description: SHP2 allosteric inhibition assay (DiFMUP prompt fluorescence). It counts as biochemical. The note with it: 0.2 nM SHP2 activated with 0.5 μM Activating Peptide 1 or 2, substrate DiFMUP. From the text: Without wishing to be bound by theory, SHP2 is allosterically activated through binding of bis-tyrosyl-phosphorylated peptides to its Src Homology 2 (SH2) domains. The latter activation step leads to the release of the auto-inhibitory interface of SHP2, which in turn renders the SHP2 protein tyrosine phosphatase (PTP) active and available for substrate recognition and reaction catalysis. The catalytic activity of SHP2 was monitored using the surrogate substrate DiFMUP in a prompt fluorescence assay format.
The phosphatase reactions were performed at room temperature in 96-well black polystyrene plate, flat bottom, non-binding surface (Corning, Cat #3650) using a final reaction volume of 100 μL and the following assay buffer conditions: 50 mM HEPES, pH 7.2, 100 mM NaCl, 0.5 mM EDTA, 0.05% P-20, 1 mM DTT.
The inhibition of SHP2 by compounds of the invention (concentrations varying from 0.00005-10 μM) was monitored using an assay in which 0.2 nM of SHP2 was incubated with 0.5 μM of Activating Peptide 1 (sequence: H2N-LN(pY)IDLDLV(dPEG8)LST(pY)ASINFQK-amide) or Activating Peptide 2 (sequence: H2N-LN(pY)AQLWHA(dPEG8)LTI(pY)ATIRRF-amide). After 30-60-minutes incubation at 25° C., the surrogate substrate DiFMUP (Invitrogen, Cat #D6567) was added to the reaction and activity was determined by a kinetic read using a microplate reader (Envision, Perkin-Elmer or Spectramax M5, Molecular Devices). The excitation and emission wavelengths were 340 nm and 450 nm, respectively. Initial rates were determined from a linear fit of the data, and the inhibitor dose response curves were analyzed using normalized IC50 regression curve fitting with control based normalization.

SHP2, sequence (Q06124 whole entry): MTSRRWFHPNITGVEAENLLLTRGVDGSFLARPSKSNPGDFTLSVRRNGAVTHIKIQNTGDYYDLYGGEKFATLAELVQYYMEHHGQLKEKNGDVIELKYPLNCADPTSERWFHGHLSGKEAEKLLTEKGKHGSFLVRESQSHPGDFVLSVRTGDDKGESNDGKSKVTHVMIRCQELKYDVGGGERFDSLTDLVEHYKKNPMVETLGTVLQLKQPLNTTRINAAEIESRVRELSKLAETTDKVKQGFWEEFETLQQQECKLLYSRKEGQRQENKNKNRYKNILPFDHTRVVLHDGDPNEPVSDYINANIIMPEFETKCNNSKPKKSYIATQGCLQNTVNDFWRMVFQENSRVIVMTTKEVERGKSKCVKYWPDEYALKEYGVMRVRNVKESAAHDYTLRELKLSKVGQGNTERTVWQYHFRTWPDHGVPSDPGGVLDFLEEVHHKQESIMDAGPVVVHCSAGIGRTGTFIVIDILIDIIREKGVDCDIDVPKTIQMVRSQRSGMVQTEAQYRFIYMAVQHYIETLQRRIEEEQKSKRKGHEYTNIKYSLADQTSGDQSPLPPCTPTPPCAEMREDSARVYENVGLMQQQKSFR

In turn, `C[C@@H]1OCC2(CCN(c3ncc(Sc4ccnc(N)c4Cl)c4nccn34)CC2)[C@@H]1N` [Compound 1 (Example 1)] registered an IC50 (Table 1) of 1 nM. `C[C@@H]1OCC2(CCN(c3ncc(Sc4ccnc(N)c4Cl)c4nccn34)CC2)[C@@H]1N` [Compound 1, (3S,4S)-8-{8-[(2-amino-3-chloropyridin-4-yl)sulfanyl]imidazo[1,2-c]pyrimidin-5-yl}-3-methyl-2-oxa-8-azaspiro[4.5]decan-4-amine]: the half-inhibitory concentration (IC50) (Table 2, class symbols) was at most 50 nM.

With `CC1(N)CCN(c2ncc(Sc3ccnc(N)c3Cl)c3nccn23)CC1` [Compound 2 (Example 2)], where the note is “Table 1”, it took 120 nM to reach half-maximal inhibition (IC50). The molecule `CC1(N)CCN(c2ncc(Sc3ccnc(N)c3Cl)c3nccn23)CC1` [Compound 2, 4-{[5-(4-amino-4-methylpiperidin-1-yl)imidazo[1,2-c]pyrimidin-8-yl]sulfanyl}-3-chloropyridin-2-amine] registered a half-inhibitory concentration (IC50) (Table 2, class symbols) of 50 to 500 nM. The same measure, in the same setting: in the case of `CC1(N)CCN(c2ncc(-c3cccc(Cl)c3Cl)c3nccn23)CC1` [Compound 3, 1-[8-(2,3-dichlorophenyl)imidazo[1,2-c]pyrimidin-5-yl]-4-methylpiperidin-4-amine] it was over 500 nM. On to `C[C@@H]1OCC2(CCN(c3ncc(Sc4ccnc(N)c4Cl)c4ncnn34)CC2)[C@@H]1N` [Compound 4 (Example 4)], for which the IC50 (Table 1) was determined as 29 nM. That is a double-digit nanomolar value.

The molecule `C[C@@H]1OCC2(CCN(c3ncc(Sc4ccnc(N)c4Cl)c4ncnn34)CC2)[C@@H]1N` [Compound 4, (3S,4S)-8-{8-[(2-amino-3-chloropyridin-4-yl)sulfanyl]-[1,2,4]triazolo[1,5-c]pyrimidin-5-yl}-3-methyl-2-oxa-8-azaspiro[4.5]decan-4-amine] had a half-inhibitory concentration (IC50) (Table 2, class symbols) of at most 50 nM. On the same count and under the same terms, in the case of `N[C@@H]1CCCC12CCN(c1ccc(-c3cccc(Cl)c3Cl)c3cncn13)CC2` [Compound 5, (1R)-8-[8-(2,3-dichlorophenyl)imidazo[1,5-a]pyridin-5-yl]-8-azaspiro[4.5]decan-1-amine] it was over 500 nM. In turn, `Cc1nc(N2CCC3(CC2)CO[C@@H](C)[C@H]3N)n2cnnc2c1-c1cccc(Cl)c1Cl` [Compound 6 (Example 6)] gave a concentration for half-maximal inhibition (IC50) (Table 1) of 10 nM. In turn, `Cc1nc(N2CCC3(CC2)CO[C@@H](C)[C@H]3N)n2cnnc2c1-c1cccc(Cl)c1Cl` [Compound 6, (3S,4S)-8-[8-(2,3-dichlorophenyl)-7-methyl-[1,2,4]triazolo[4,3-c]pyrimidin-5-yl]-3-methyl-2-oxa-8-azaspiro[4.5]decan-4-amine] returned a concentration for half-maximal inhibition (IC50) (Table 2, class symbols) of at most 50 nM. Regarding `CC1(N)CCN(c2ncc(Sc3ccnc(N)c3Cl)c3nncn23)CC1` [Compound 7, 4-{[5-(4-amino-4-methylpiperidin-1-yl)-[1,2,4]triazolo[4,3-c]pyrimidin-8-yl]sulfanyl}-3-chloropyridin-2-amine], the IC50 (Table 2, class symbols) lay in the range of 50 to 500 nM. The molecule `Cc1nc(N2CCC3(CC2)CO[C@@H](C)[C@H]3N)n2ccnc2c1-c1cccc(Cl)c1Cl` [Compound 8, (3S,4S)-8-[8-(2,3-dichlorophenyl)-7-methylimidazo[1,2-c]pyrimidin-5-yl]-3-methyl-2-oxa-8-azaspiro[4.5]decan-4-amine] gave an IC50 (Table 2, class symbols) of at most 50 nM. Same read-out and setting: in the case of `COc1cccc(-c2c(C)nc(N3CCC4(CC3)CO[C@@H](C)[C@H]4N)n3ccnc23)c1Cl` [Compound 9, (3S,4S)-8-[8-(2-chloro-3-methoxyphenyl)-7-methylimidazo[1,2-c]pyrimidin-5-yl]-3-methyl-2-oxa-8-azaspiro[4.5]decan-4-amine] it was at most 50 nM; in that of `C[C@@H]1OCC2(CCN(c3ncc(Sc4ccnc(N5CC(O)C5)c4Cl)c4nccn34)CC2)[C@@H]1N` [Compound 10, 1-[4-({5-[(3S,4S)-4-amino-3-methyl-2-oxa-8-azaspiro[4.5]decan-8-yl]imidazo[1,2-c]pyrimidin-8-yl}sulfanyl)-3-chloropyridin-2-yl]azetidin-3-ol], at most 50 nM; in that of `C[C@@H]1OCC2(CCN(c3ncc(Sc4cccc(Cl)c4Cl)c4nccn34)CC2)[C@@H]1N` [Compound 11, (3S,4S)-8-{8-[(2,3-dichlorophenyl)sulfanyl]imidazo[1,2-c]pyrimidin-5-yl}-3-methyl-2-oxa-8-azaspiro[4.5]decan-4-amine], at most 50 nM. In the case of `C[C@@H]1OCC2(CCN(c3ncc(Sc4ccnc(N5CC(S(C)(=O)=O)C5)c4Cl)c4nccn34)CC2)[C@@H]1N` [Compound 12, (3S,4S)-8-(8-{[3-chloro-2-(3-methanesulfonylazetidin-1-yl)pyridin-4-yl]sulfanyl}imidazo[1,2-c]pyrimidin-5-yl)-3-methyl-2-oxa-8-azaspiro[4.5]decan-4-amine], under “Table 2, class symbols”, the half-inhibitory concentration (IC50) was at most 50 nM.

Under “Table 2, class symbols”, `C[C@@H]1OCC2(CCN(c3ncc(Sc4ccnc(N5CC(C#N)C5)c4Cl)c4nccn34)CC2)[C@@H]1N` [Compound 13, 1-[4-({5-[(3S,4S)-4-amino-3-methyl-2-oxa-8-azaspiro[4.5]decan-8-yl]imidazo[1,2-c]pyrimidin-8-yl}sulfanyl)-3-chloropyridin-2-yl]azetidine-3-carbonitrile] displayed an IC50 of at most 50 nM. `C[C@@H]1OCC2(CCN(c3ncc(Sc4cccc(C(=O)N(C)C)c4Cl)c4nccn34)CC2)[C@@H]1N` [Compound 14, 3-({5-[(3S,4S)-4-amino-3-methyl-2-oxa-8-azaspiro[4.5]decan-8-yl]imidazo[1,2-c]pyrimidin-8-yl}sulfanyl)-2-chloro-N,N-dimethylbenzamide] came in with an IC50 (Table 2, class symbols) of 50 to 500 nM. `C[C@@H]1OCC2(CCN(c3ncc(Sc4ccnc5[nH]ccc45)c4nccn34)CC2)[C@@H]1N` [Compound 15, (3S,4S)-3-methyl-8-(8-{1H-pyrrolo[2,3-b]pyridin-4-ylsulfanyl}imidazo[1,2-c]pyrimidin-5-yl)-2-oxa-8-azaspiro[4.5]decan-4-amine] registered a half-inhibitory concentration (IC50) (Table 2, class symbols) of at most 50 nM. In the case of `C[C@@H]1OCC2(CCN(c3ncc(Sc4ccnc(N)c4)c4nccn34)CC2)[C@@H]1N` [Compound 16, (3S,4S)-8-{8-[(2-aminopyridin-4-yl)sulfanyl]imidazo[1,2-c]pyrimidin-5-yl}-3-methyl-2-oxa-8-azaspiro[4.5]decan-4-amine], the IC50 (Table 2, class symbols) was in the range of 50 to 500 nM. As to `C[C@@H]1OCC2(CCN(c3ncc(Sc4ccnc5nc[nH]c45)c4nccn34)CC2)[C@@H]1N` [Compound 17, (3S,4S)-8-(8-{1H-imidazo[4,5-b]pyridin-7-ylsulfanyl}imidazo[1,2-c]pyrimidin-5-yl)-3-methyl-2-oxa-8-azaspiro[4.5]decan-4-amine], the IC50 (Table 2, class symbols) is at most 50 nM. On the same count and under the same terms, in the case of `Cc1cc(Sc2cnc(N3CCC4(CC3)CO[C@@H](C)[C@H]4N)n3ccnc23)cc(N)n1` [Compound 18, (3S,4S)-8-{8-[(2-amino-6-methylpyridin-4-yl)sulfanyl]imidazo[1,2-c]pyrimidin-5-yl}-3-methyl-2-oxa-8-azaspiro[4.5]decan-4-amine] it was 50 to 500 nM. Still for that read-out and setting: in the case of `Nc1nccc(Sc2cnc(N3CC4(CC(N)C4)C3)n3ccnc23)c1Cl` [Compound 19, 2-{8-[(2-amino-3-chloropyridin-4-yl)sulfanyl]imidazo[1,2-c]pyrimidin-5-yl}-2-azaspiro[3.3]heptan-6-amine] it was over 500 nM; in that of `Nc1nccc(Sc2cnc(N3CCC4(CC3)CNC4)n3ccnc23)c1Cl` [Compound 20, 3-chloro-4-[(5-{2,7-diazaspiro[3.5]nonan-7-yl}imidazo[1,2-c]pyrimidin-8-yl)sulfanyl]pyridin-2-amine], 50 to 500 nM; in that of `Nc1nccc(Sc2cnc(N3CC[C@H](N)C3)n3ccnc23)c1Cl` [Compound 21, 4-({5-[(3S)-3-aminopyrrolidin-1-yl]imidazo[1,2-c]pyrimidin-8-yl}sulfanyl)-3-chloropyridin-2-amine], over 500 nM. The same measure, in the same setting: in the case of `NCCC1CN(c2ncc(Sc3ccnc(N)c3Cl)c3nccn23)C1` [Compound 22, 4-({5-[3-(2-aminoethyl)azetidin-1-yl]imidazo[1,2-c]pyrimidin-8-yl}sulfanyl)-3-chloropyridin-2-amine] it was over 500 nM; in that of `NCCNc1ncc(Sc2ccnc(N)c2Cl)c2nccn12` [Compound 23, N1-{8-[(2-amino-3-chloropyridin-4-yl)sulfanyl]imidazo[1,2-c]pyrimidin-5-yl}ethane-1,2-diamine], over 500 nM; in that of `NC[C@H]1CCN(c2ncc(Sc3ccnc(N)c3Cl)c3nccn23)C1` [Compound 24, 4-({5-[(3R)-3-(aminomethyl)pyrrolidin-1-yl]imidazo[1,2-c]pyrimidin-8-yl}sulfanyl)-3-chloropyridin-2-amine], 50 to 500 nM. As for `Nc1nccc(Sc2cnc(N3C[C@@H]4[C@@H](N)[C@@H]4C3)n3ccnc23)c1Cl` [Compound 25, (1R,5S,6R)-3-{8-[(2-amino-3-chloropyridin-4-yl)sulfanyl]imidazo[1,2-c]pyrimidin-5-yl}-3-azabicyclo[3.1.0]hexan-6-amine], the IC50 (Table 2, class symbols) was in the range of 50 to 500 nM.

The molecule `CC1(N)CN(c2ncc(Sc3ccnc(N)c3Cl)c3nccn23)C1` [Compound 26, 4-{[5-(3-amino-3-methylazetidin-1-yl)imidazo[1,2-c]pyrimidin-8-yl]sulfanyl}-3-chloropyridin-2-amine] gave a half-inhibitory concentration (IC50) (Table 2, class symbols) of over 500 nM.
